Experimental data: patent US20080161378A1, “Novel Therapeutic Agent For Amyotrophic Lateral Sclerosis (Als) or Diseases Caused by Als” (priority 2004, published 2008)

Tests used:
ALS = conditions: Non-Patent Documents 1-5; cited from earlier work
patients of ALS [1] = experiment: Safety evaluation 6 months after administration, clinical laboratory test; type: in vivo, human; conditions: for BUN / CK / Creatinine / GOT / GPT / γ-GTP: average of patients of Example 2
Description: The patients of Example 2 were each subjected to a clinical laboratory test.
The following components were determined before and after drug administration using a large automated multichannel analyzer (automatic analyzer 7600-020s; Hitachi).

patients of ALS [2] = experiment: Efficacy evaluation 6 months after administration based on ALSFRS-R (cumulative differences); type: in vivo, human; conditions: for Suppression rate (rate of "suppressed") in accordance with ALSFRS-R / Assessment based on cumulative differences in accordance with ALSFRS-R: Suppressed (number of cases): i.v. once daily; for Suppression rate (rate of "suppressed") in accordance with ALSFRS-R: 6 administration periods; for Assessment based on cumulative differences in accordance with ALSFRS-R: Suppressed (number of cases): 6 administration periods with drug holidays, suppressed = ratio between cumulative differences 50% or less; for Assessment based on cumulative differences in accordance with ALSFRS-R: No change (number of cases): no change = ratio 100% or more; for Assessment based on cumulative differences in accordance with ALSFRS-R: Slightly suppressed (number of cases): slightly suppressed = ratio more than 50% and less than 100%
Description: 1 ampule of “Radicut injection 30 mg” (containing 30 mg of edaravone, produced and marketed by Mitsubishi Pharma Corporation) was intravenously administered once daily to 5 patients of ALS. Single daily administration of the medicament took 30 minutes, and the administration was carried out for 14 consecutive days (the 1st administration period). […] Thereafter, intravenous administration of the medicament was carried out for 10 days (with no administration on Saturdays, Sundays, and national holidays) in the manner described above (the 2nd administration period). Then, treatments similar to those carried out in the 2nd administration period were repeated 4 times (the 3rd to 6th administration periods).
2 ampules of the aforementioned “Radicut injection 30 mg” were intravenously administered once daily to 14 patients of ALS. Single daily administration of the medicament took 60 minutes, and the administration was carried out for 14 consecutive days (the 1st administration period). […] Thereafter, the intravenous administration of the medicament was carried out for 10 days (with no administration on Saturdays, Sundays, and national holidays) in the manner described above (the 2nd administration period). Then, treatments similar to those carried out in the 2nd administration period were repeated 4 times (the 3rd to 6th administration periods).
In accordance with ALSFRS-R, the score at a time point “before the 1st administration period” (*) was determined to be a base point based on comparison of changes “before administration” and changes “during administration.” Then, patients were evaluated in the following manner.
• Difference at each time point before administration=(* before the 1st administration period)−(time point 1, 2 3, 4, 5 or 6 before administration) • Difference at each time point during administration=(time point i, ii, iii, iv, v, or vi before each administration period)−(* before the 1st administration period)
The sum of differences at time points before administration (defined as A)
A=(*−1)+(*−2)+(*−3)+(*−4)+(*−5)+(*−6)
The sum of differences at time points during administration (defined as B)
B=(i−*)+(ii−*)+(iii−*)+(iv−*)+(v−*)+(vi−*)
Averages of the sums of differences obtained in 2) were calculated so as to obtain cumulative differences. (The sums were divided by 6, based on 6 time points 1 to 6 before administration and 6 time points i to vi during administration).
Cumulative difference before administration=A/6
Cumulative difference during administration=B/6
Based on the averages obtained in 3), the ratio of cumulative difference before administration (A/6) to cumulative difference during administration (B/6) was expressed by the following formula:
(Formula)cumulative difference during administration/cumulative difference before administration×100.
Ratio between cumulative differences(%)=(B/6)/(A/6)×100.
Based on the “ratio between cumulative differences” obtained in 4), efficacy evaluation was made in accordance with the following criteria.

patients of ALS [3] = experiment: Efficacy evaluation 6 months after administration based on % FVC (percent predicted forced vital capacity); type: in vivo, human; conditions: for average rate of decrease of % FVC: before 1st administration period vs end of 6th administration period
Description: The term “% FVC” stands for percent predicted forced vital capacity; it is generally used as an index in a method for objectively evaluating respiratory function in ALS patients (ALS treatment guidelines 2002). In addition, in the case of ALS patients (placebo group), the rate of decrease of % FVC for during 6 months is 13.8% (The BDNF Study Group (Phase III), Neurology, 52, 1427 (1999)).
1 ampule of the aforementioned “Radicut injection 30 mg” was intravenously administered once daily to 4 patients of ALS. Single daily administration of the medicament took 30 minutes, and it was carried out for 14 consecutive days (the 1st administration period). […] Thereafter, intravenous administration of the medicament was carried out for 10 days (with no administration on Saturdays, Sundays, and national holidays) in the manner described above (the 2nd administration period). Then, treatments similar to those carried out in the 2nd administration period were repeated 4 times (the 3rd to the 6th administration periods).
The % FVC for each patient was determined using a chestac-11 (Chest). The average rate of decrease of % FVC was 9.3% when comparing % FVC before the 1st drug administration period and that at the end of the 6th drug administration period.
2 ampules of “Radicut injection 30 mg” (each of which contained 30 mg of edaravone) were intravenously administered once daily to 12 patients of ALS. Single daily administration of the medicament took 60 minutes and it was carried out for 14 consecutive days (the 1st administration period). […] Thereafter, intravenous administration of the medicament was carried out for 10 days (with no administration on Saturdays, Sundays, and national holidays) in the manner described above (the 2nd administration period). […]
The % FVC for each patient was determined using a chestac-11 (Chest), as with the case of the 30 mg group. […] In addition, partial pressure of arterial carbon dioxide (PaCO2) was determined. The PaCO2 of each patient was determined using a blood gas analyzer (Bayer 850; Bayer Medical).

patients of ALS [4] = experiment: Partial pressure of arterial carbon dioxide (PaCO2), blood gas analyzer; type: in vivo, human
Description: 2 ampules of “Radicut injection 30 mg” (each of which contained 30 mg of edaravone) were intravenously administered once daily to 12 patients of ALS. Single daily administration of the medicament took 60 minutes and it was carried out for 14 consecutive days (the 1st administration period). […] Thereafter, intravenous administration of the medicament was carried out for 10 days (with no administration on Saturdays, Sundays, and national holidays) in the manner described above (the 2nd administration period). Then, treatments similar to those carried out in the 2nd administration period were repeated 4 times (the 3rd to the 6th administration periods).
The % FVC for each patient was determined using a chestac-11 (Chest), as with the case of the 30 mg group. The average rate of decrease of % FVC was 4.5% when comparing % FVC before the 1st drug administration period and that at the end of the 6th drug administration period. In addition, partial pressure of arterial carbon dioxide (PaCO2) was determined. The PaCO2 of each patient was determined using a blood gas analyzer (Bayer 850; Bayer Medical).

[5] = before administration (baseline)
[6] = overall conclusion of Example 2

Molecule: CC(=O)N[C@@H](CS)C(=O)O [N-acetylcysteine]
- prevention of decreased respiratory function in ALS (ALS): cannot prevent decreased respiratory function

Molecule: CC1=NN(c2ccccc2)C(=O)C1 [Radicut injection 30 mg, 3-methyl-1-phenyl-2-pyrazolin-5-one]
- BUN (patients of ALS [1]; after administration): 14.3 mg/dL
- CK (patients of ALS [1]; after administration): 135.6 IU/L
- Creatinine (patients of ALS [1]; after administration): 0.6 mg/dL
- GOT (patients of ALS [1]; after administration): 19.1 IU/L
- GPT (patients of ALS [1]; after administration): 19.6 IU/L
- γ-GTP (patients of ALS [1]; after administration): 25.3 IU/L
- BUN (patients of ALS [1]; [5]): 14.1 mg/dL
- CK (patients of ALS [1]; [5]): 165.3 IU/L
- Creatinine (patients of ALS [1]; [5]): 0.6 mg/dL
- GOT (patients of ALS [1]; [5]): 21.3 IU/L
- GPT (patients of ALS [1]; [5]): 22.2 IU/L
- γ-GTP (patients of ALS [1]; [5]): 31.6 IU/L
- clinical laboratory values after administration (safety) (patients of ALS [1]; patients of Example 2, 6 months after administration): did not increase to abnormal levels
- Suppression rate (rate of "suppressed") in accordance with ALSFRS-R (patients of ALS [2]; 30 mg group (5 ALS patients)): 20%
- Assessment based on cumulative differences in accordance with ALSFRS-R: Suppressed (number of cases) (patients of ALS [2]; 30 mg group (5 ALS patients)): 1
- Assessment based on cumulative differences in accordance with ALSFRS-R: No change (number of cases) (patients of ALS [2]; 30 mg group (5 ALS patients)): 1
- Assessment based on cumulative differences in accordance with ALSFRS-R: Slightly suppressed (number of cases) (patients of ALS [2]; 30 mg group (5 ALS patients)): 3
- Suppression rate (rate of "suppressed") in accordance with ALSFRS-R (patients of ALS [2]; 60 mg group (14 ALS patients)): 50%
- Assessment based on cumulative differences in accordance with ALSFRS-R: Suppressed (number of cases) (patients of ALS [2]; 60 mg group (14 ALS patients)): 7
- Assessment based on cumulative differences in accordance with ALSFRS-R: No change (number of cases) (patients of ALS [2]; 60 mg group (14 ALS patients)): 6
- Assessment based on cumulative differences in accordance with ALSFRS-R: Slightly suppressed (number of cases) (patients of ALS [2]; 60 mg group (14 ALS patients)): 1
- average rate of decrease of % FVC (patients of ALS [3]; 30 mg group (4 ALS patients)): 9.3%
- average rate of decrease of % FVC (patients of ALS [3]; 60 mg group (12 ALS patients)): 4.5%
- decrease of % FVC in ALS patients (patients of ALS [3]; [6]): significantly suppressed
- PaCO2 values before the 1st administration period and after the end of the 6th administration period (patients of ALS [4]; 60 mg group (12 ALS patients)): almost the same
- increase of PaCO2 in ALS patients (patients of ALS [4]; [6]): significantly suppressed

Molecule: NCC1(CC(=O)O)CCCCC1 [gabapentin]
- prevention of decreased respiratory function in ALS (ALS): cannot prevent decreased respiratory function

Molecule: RhIGF-1: medicament examined as potential medicament for treating ALS
- prevention of decreased respiratory function in ALS (ALS): cannot prevent decreased respiratory function

B1: BDNF: medicament examined as potential medicament for treating ALS (protein, UniProt P23560 19-247, looked up)
Neurotrophic factor BDNF …: APMKEANIRGQGGLAYPGVRTHGTLESVNGPKAGSRGLTSLADTFEHVIEELLDEDQKVRPNEENNKDADLYTSRVMLSSQVPLEPPLLFLLEEYKNYLDAANMSMRVRRHSDPARRGELSVCDSISEWVTAADKKTAVDMSGGTVTVLEKVPVSKGQLKQYFYETKCNPMGYTKEGCRGIDKRHWNSQCRTTQSYVRALTMDSKKRIGWRFIRIDTSCVCTLTIKRGR
- prevention of decreased respiratory function in ALS (ALS): cannot prevent decreased respiratory function
